Results from article PMC12401175, “Construction of hyperthermostable D‐allulose 3‐epimerase from Arthrobacter globiformis M30 using the sequence information from Arthrobacter psychrolactophilus” (FEBS Open Bio, 2025).
Like-named read-outs stand apart in the source and are kept apart here.

Tests used:
[1] = molecular target: T1, AgDAE (Arthrobacter globiformis, UniProt A0A1L7NQ96); type: biochemical; conditions: 50 °C, 50 mM sodium phosphate pH 8.0, 2 mM MgSO4; read-out: Allulose → Fructose / K m
T1 sequence (A0A1L7NQ96 1-289): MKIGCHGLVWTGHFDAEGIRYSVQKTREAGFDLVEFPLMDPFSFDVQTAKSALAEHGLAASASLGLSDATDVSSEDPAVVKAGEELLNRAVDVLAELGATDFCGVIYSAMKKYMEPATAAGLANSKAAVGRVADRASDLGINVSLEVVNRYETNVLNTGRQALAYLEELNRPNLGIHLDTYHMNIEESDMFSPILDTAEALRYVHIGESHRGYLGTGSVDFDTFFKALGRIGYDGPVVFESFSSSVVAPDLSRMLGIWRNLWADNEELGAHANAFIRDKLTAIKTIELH

[2] = molecular target: T1, AgDAE; type: biochemical; conditions: 50 °C, 50 mM sodium phosphate pH 8.0, 2 mM MgSO4; read-out: Fructose → Allulose / K m

`OCC1(O)OC[C@@H](O)[C@@H](O)[C@H]1O` (stereo partly drawn) [D-allulose] showed a Km [1] of 11.7 ± 0.7 mM.

Work on `OCC1(O)OC[C@@H](O)[C@@H](O)[C@@H]1O` (stereo partly drawn) [D-fructose] yielded a Km [2] of 21.1 ± 5.6 mM.
